# Data as given in PubChem BioAssay (NCI).
# “And” between values parts separate entries of the source, which are not always exact repeats. Equal values may be shown once.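 Where inhibition never reached the appropriate level, the endpoint shown equals the highest concentration tested. Otherwise, values were interpolated linearly from a five-concentration, 48-hour dose response in 96-well plates. GI50 is the concentration that inhibits growth by half. The concentration for full growth arrest is given as TGI.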
# How the values were obtained:
# Assay in all cases: NCI anticancer screen, dose series, 48 h
# T-47D breast = system: T-47D breast
# U251 CNS = system: U251 CNS
# OVCAR-5 ovarian = system: OVCAR-5 ovarian
# SK-MEL-2 melanoma = system: SK-MEL-2 melanoma
# K-562 leukemia = system: K-562 leukemia
# LOX IMVI melanoma = system: LOX IMVI melanoma
# EKVX NSCLC = system: EKVX NSCLC
# PC-3 prostate = system: PC-3 prostate
# SF-268 CNS = system: SF-268 CNS
# HOP-92 NSCLC = system: HOP-92 NSCLC
SMILES,GI50 (T-47D breast) [µM],TGI (T-47D breast) [µM],GI50 (U251 CNS) [nM],TGI (U251 CNS),GI50 (OVCAR-5 ovarian) [µM],TGI (OVCAR-5 ovarian),GI50 (SK-MEL-2 melanoma) [nM],TGI (SK-MEL-2 melanoma),GI50 (K-562 leukemia) [nM],TGI (K-562 leukemia) [µM],GI50 (LOX IMVI melanoma) [nM],TGI (LOX IMVI melanoma),GI50 (EKVX NSCLC) [nM],TGI (EKVX NSCLC) [µM],GI50 (PC-3 prostate) [nM],TGI (PC-3 prostate) [µM],GI50 (SF-268 CNS) [nM],TGI (SF-268 CNS) [µM],GI50 (HOP-92 NSCLC) [nM],TGI (HOP-92 NSCLC)
CN1CCN(C(=O)C(C)(C)c2ccc(C(=O)Nc3cn4cc(-c5ccncc5)ccc4n3)cc2)CC1,0.201,> 100,332,> 100 µM,0.405,7.16 µM,316,1.62 µM,194,> 100,215,0.934 µM,491,> 100,382,> 70.2,380,10.5,366,7.11 µM
Cn1ncnc1[C@H]1c2n[nH]c(=O)c3cc(F)cc(c23)N[C@@H]1c1ccc(F)cc1,> 100,> 100,1650,> 100 µM,> 100,> 100 µM,> 100000,> 100 µM,> 100000,> 100,4750,> 100 µM,–,–,> 100000,> 100,3070,> 100,–,> 100 µM
CC[C@@]1(O)C(=O)OCc2c1cc1n(c2=O)Cc2cc3cc4c(cc3nc2-1)OCO4,–,0.427,–,0.0171 µM and 0.0613 µM,–,0.122 µM and 0.0372 µM,204,0.173 µM and 0.997 µM,< 11.4,> 100,< 1,0.109 µM and 0.0506 µM,415,–,–,> 100,–,–,–,0.166 µM and 0.051 µM
COc1ccc2c(c1)NC1=C(C(=O)OC1)C2c1cc(OC)c2c(c1)OCO2 (stereo unspecified),> 100,> 100,23.6,> 100 µM,0.0817,> 100 µM,29.9,> 100 µM,–,> 100,< 18.9,> 100 µM,–,> 100,28,> 100,< 21,> 100,1360,> 87.9 µM
C=C1C(O)C2C(=C(CC)C13CC3)C(=O)C(C)(C)C2OC (stereo unspecified),> 100,> 100,48400,> 100 µM,> 100,> 100 µM,> 100000,> 100 µM,31300,> 100,43100,> 100 µM,82600,> 100,35200,> 100,> 100000,> 100,48400,> 100 µM
CN(C)CCN1C(=O)c2c(c3c4ccccc4n4c3c3c2c2ccccc2n3C2CC(O)C(O)C4(C)O2)C1=O (stereo unspecified),2.39,12.1,1040,7.29 µM,4.43,27.6 µM,2970,9.2 µM,840,7.54,448,1.89 µM,2240,13,2050,9.48,1460,8.76,2600,11.9 µM
O=c1cnn(C2OC(CO)C(O)C2O)c(=S)[nH]1 (stereo unspecified),–,> 100,–,> 100 µM,–,> 100 µM,–,> 100 µM,–,> 44.6,–,> 68.5 µM,–,> 100,–,> 100,–,> 100,–,> 100 µM
CC(C)(C)C(=O)OCC1C(=O)OCC1C(=O)N1Cc2cc3ccccc3nc2C1 (stereo unspecified),–,7.63,–,20.6 µM,–,23.1 µM,–,22.1 µM,–,2.64,–,15.3 µM,–,22.4,–,23,–,24.7,–,3.69 µM
COc1ccc(CCN2CC=Cn3c2nc2ccccc2c3=O)cc1,16,> 100,36.8,> 100 µM,0.217,> 100 µM,33.4,32.9 µM,20.3,> 100,58.5,> 40.1 µM,185,> 100,30.8,> 100,104,> 60.8,127,29.5 µM
Cc1cc2c(C(C)C)c(O)c(O)cc2c(O)c1-c1c(C)cc2c(C(C)C)c(O)c(O)cc2c1O,19.1,45.7,4160,14.5 µM,17.9,36.5 µM,17700,33.9 µM,5720,27.7,4420,16.2 µM,20800,68.6,12400,27.7,12000,34.6,3130,17.4 µM
O=C1NC(Nc2ccccc2)=NC(C(F)(F)F)(C(F)(F)F)N1,–,> 100,–,87.9 µM,–,> 100 µM,–,75.4 µM,–,> 100,–,> 100 µM,–,> 100,–,> 100,–,> 100,–,53.4 µM
COc1cc2nc(N3CCCC3)nc(NCc3ccccc3)c2cc1OC,1.87,4.29,1880,3.92 µM,4.63,16.8 µM,2260,5.13 µM,2090,6.02,1710,3.36 µM,6040,19.2,3080,15.2,8310,23.9,2360,14 µM
O=C(C/C(=N/O)C(=O)NC1=C(Cl)C(=O)c2ccccc2C1=O)CC(c1ccccc1)c1c(O)c2ccccc2oc1=O (stereo unspecified),–,38.1,–,> 100 µM,–,32.8 µM,–,32.4 µM,–,> 100,–,> 100 µM,–,42.3,–,> 100,–,42.5,–,> 100 µM
COc1ccc(C/C(C)=C(/c2ccc(OCCN3CCCCC3)cc2)c2ccc(OC(=O)NCc3ccccc3)cc2)cc1,0.303,0.746,403,0.791 µM,0.415,0.78 µM,460,0.879 µM,301,1.23,421,0.779 µM,370,0.773,398,0.778,413,0.787,258,0.575 µM
C#CC#CC#CC#CC#CC#CC#CC#CCC1OCC(COC(=O)O[C@@H](C(=O)O[C@H]2C[C@@]3(O)[C@@H](OC(=O)c4ccccc4)[C@@H]4[C@]5(OC(C)=O)CO[C@@H]5C[C@H](O)[C@@]4(C)C(=O)[C@H](OC(C)=O)C(=C2C)C3(C)C)[C@@H](NC(=O)c2ccccc2)c2ccccc2)O1 (stereo partly specified),0.205,> 33.3,162,> 33.3 µM,0.25,> 33.3 µM,603,> 33.3 µM,121,> 33.3,27.5,> 33.3 µM,> 26300,> 33.3,268,> 33.3,379,> 33.3,–,> 33.3 µM
NC(=O)N/N=C1/CCC(O)CC1CC(=O)O (stereo unspecified),–,> 100,–,> 100 µM,–,> 100 µM,–,> 100 µM,–,> 100,–,> 100 µM,–,> 100,–,> 100,–,> 100,–,> 100 µM
C=CCN=C(N/N=C/c1ccc([N+](=O)[O-])o1)NS(=O)(=O)c1cc(C(=O)Nc2ccc(Cl)cc2)c(Cl)cc1SC,5.96,> 51.5,3930,> 100 µM,14.1,> 100 µM,–,> 24.4 µM,2410,> 21.2,> 64100,> 100 µM,2630,6.58,2130,> 100,2850,> 100,4940,> 100 µM
O=C1Nc2ccc(Br)cc2C1=Nc1cccnc1,–,52.7,–,24.8 µM,–,> 100 µM,–,57.2 µM,–,52.7,–,34.8 µM,–,65.1,–,41.2,–,71.8,–,> 100 µM
N#C/C(=C\c1ccsc1)c1nc2ccccc2o1,44.7,> 100,37200,> 100 µM,> 100,> 100 µM,98500,> 100 µM,> 100000,> 100,> 100000,> 100 µM,67500,> 100,> 100000,> 100,38000,> 100,14400,42.8 µM
NCCCC[C@@H]1NC(=O)[C@H]2CCCN2C(=O)[C@H](Cc2ccccc2)CNC(=O)[C@H](Cc2ccccc2)NC1=O,> 37.5,> 37.5,> 37500,> 37.5 µM,> 37.5,> 37.5 µM,> 37500,> 37.5 µM,> 17900,> 37.5,> 37500,> 37.5 µM,> 37500,> 37.5,> 37500,> 37.5,> 37500,> 37.5,> 37500,> 37.5 µM
O=C(Nc1ccc(Br)cc1F)c1cc(I)ccc1O,1.92,6.35,2670,> 100 µM,3.17,> 100 µM,2000,5.71 µM,2520,> 100,2780,14.3 µM,2250,28.6,2310,7.86,2400,29.6,1080,4.8 µM
COc1cc(OC)c(C/C=C/c2ccccc2)cc1O,–,23.7,–,30.4 µM,–,69.9 µM,–,41.8 µM,–,33,–,29.4 µM,–,33.6,–,35.6,–,34.4,–,26.5 µM
CC(C)CCCC(C)[C@H]1CCC2[C@@H]3CCC4Cc5nc6c(nc5C[C@]4(C)C3CC[C@@]21C)CC1CC[C@@H]2C(CC[C@@]3(C)C2CC[C@@H]3C(C)CCCC(C)C)[C@@]1(C)C6 (stereo partly specified),–,> 100,–,> 100 µM,–,> 100 µM,–,> 100 µM,–,> 100,–,> 100 µM,–,> 100,–,> 100,–,> 100,–,> 100 µM
O=C1C(Nc2ccc(Cl)cc2)=C(I)C(=O)c2ncccc21,1,3.54,1480,2.8 µM,1.58,3 µM,1550,3.03 µM,278,10.4,624,2.11 µM,1710,3.32,1120,2.6,1370,3.23,1430,2.9 µM
CC1=C(C(=O)Nc2ccc3n[nH]c(C)c3c2)C(c2ccc(C(F)(F)F)cc2)CC(=O)N1 (stereo unspecified),> 25,> 25,> 25000,> 25 µM,16.2,> 25 µM,> 25000,> 25 µM,> 25000,> 25,12800,> 25 µM,5890,> 25,> 25000,> 25,8590,> 25,11.7,1.46 µM
Cc1[nH]c2ccccc2c1CCCO,> 100,> 100,> 100000,> 100 µM,> 100,> 100 µM,> 100000,> 100 µM,> 100000,> 100,> 100000,> 100 µM,> 100000,> 100,> 100000,> 100,> 100000,> 100,> 100000,> 100 µM
O=C1/C(=C/c2ccccc2)CN(C(=O)CCN2CCOCC2)C/C1=C\c1ccccc1,–,7.35,–,3.52 µM,–,16.2 µM,–,6.96 µM,–,4.18,–,2.21 µM,–,26.7,–,8.51,–,8.73,–,22.2 µM
CC1(C)C2CCC13C(=O)C1OC3(C2)C2C(=O)c3ccccc3C(=O)C12 (stereo unspecified),> 100,> 100,> 100000,> 100 µM,> 100,> 100 µM,> 100000,> 100 µM,> 100000,> 100,–,–,–,–,77200,> 100,> 100000,> 100,> 100000,> 100 µM
